According to ChEMBL document CHEMBL1148003 (Bioorg Med Chem, 2007):

Legend:
[1] = Inhibition of jack bean alpha-D-mannosidase; design: species or system Canavalia ensiformis
[2] = Inhibition of Escherichia coli beta-D-galactosidase
[3] = Inhibition of bovine kidney alpha-L-fucosidase; design: species or system Bos taurus
[4] = Inhibition of almond beta-D-glucosidase; design: species or system Prunus dulcis
[5] = target: T1, Glucoamylase, intracellular sporulation-specific (Saccharomyces cerevisiae S288c) (UniProt P08019); test: Inhibition of yeast alpha-D-glucosidase at 1 mM
T1 sequence (whole entry): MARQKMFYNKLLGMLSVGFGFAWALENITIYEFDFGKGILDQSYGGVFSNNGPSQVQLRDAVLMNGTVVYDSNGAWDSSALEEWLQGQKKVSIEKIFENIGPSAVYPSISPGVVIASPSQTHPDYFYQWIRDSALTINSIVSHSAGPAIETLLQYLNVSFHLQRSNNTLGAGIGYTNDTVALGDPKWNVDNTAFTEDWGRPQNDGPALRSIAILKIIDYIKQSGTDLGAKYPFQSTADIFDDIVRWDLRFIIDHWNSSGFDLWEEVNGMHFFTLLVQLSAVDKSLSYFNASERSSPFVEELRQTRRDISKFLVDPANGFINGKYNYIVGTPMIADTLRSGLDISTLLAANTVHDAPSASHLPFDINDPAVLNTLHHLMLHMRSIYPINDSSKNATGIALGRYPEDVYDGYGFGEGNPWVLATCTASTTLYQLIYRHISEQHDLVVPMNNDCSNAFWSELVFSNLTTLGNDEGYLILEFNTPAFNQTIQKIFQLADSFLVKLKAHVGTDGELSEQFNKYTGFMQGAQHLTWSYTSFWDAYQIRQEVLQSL

[6] = Inhibition of green coffee bean alpha-D-galactosidase at 1 mM
Escherichia coli = test: Inhibition of Escherichia coli beta-D-galactosidase at 1 mM
[7] = Inhibition of green coffee bean alpha-D-galactosidase
Cornu aspersum = test: Inhibition of snail beta-D-mannosidase at 1 mM
Bos taurus = species on record: Bos taurus; test: Inhibition of bovine kidney alpha-L-fucosidase at 1 mM
[8] = Inhibition of snail beta-D-mannosidase; design: species or system Cornu aspersum
[9] = Inhibition of Aspergillus wentii beta-D-mannosidase

O[C@@H]1CN=C[C@@H]1O
Ki [1]: 20 µM | IC50 [2]: 1000 µM | Ki [3]: 3 µM

OC[C@H]1NC[C@@H](O)[C@@H]1O
IC50 [4]: 500 µM | IC50 [1]: 200 µM

O=S(=O)(O)C1NC[C@@H](O)[C@@H]1O (stereo not given in full)
IC50 [4]: 180 µM | Ki [1]: 5 µM

O[C@@H]1CNC[C@H]1O
inhibition [5]: 43% | inhibition [6]: 27% | inhibition (Escherichia coli): 20%

O[C@@H]1C=NC[C@@H]1O
Ki [4]: 0.3 µM | Ki [1]: 2 µM | Ki [7]: 0.2 µM | Ki [2]: 0.2 µM | IC50 [3]: 1000 µM

O=S(=O)(O)C1NC[C@H](O)[C@H]1O (stereo not given in full)
IC50 [4]: 2000 µM | inhibition (Cornu aspersum): 28% | inhibition [6]: 20% | inhibition (Bos taurus): 23%

O[C@H]1[C@H](O)CN[C@H]1O
IC50 [4]: 200 µM | Ki [1]: 5 µM | IC50 [8]: 1000 µM | inhibition (Cornu aspersum): 50% | inhibition [6]: 40%

OC[C@H]1NC(O)[C@H](O)[C@@H](O)[C@@H]1O (stereo not given in full) [NOJIRIMYCIN]
Ki [4]: 0.9 µM | Ki [1]: 500 µM | Ki [9]: 900 µM

OC[C@H]1N=C[C@@H](O)[C@@H]1O [NECTRISINE]
IC50 [4]: 2.2 µM | IC50 [1]: 3 µM | Ki [9]: 42 µM
